Measured values as given in patent US11236129B2, “IL-17A binding peptides and medical uses thereof” (Dompe' Farmaceutici S.P.A., priority 2018, dated 2022).
Where two headings read alike, the source gives them in different places. Residues, ends and D or L forms follow the SMILES beside them.

Biological target: IL-17RA/IL17RC dimerization induced by IL-17A (Homo sapiens, UniProt Q16552)
Experiment: IL-17RA/IL17RC dimerization assay in response to IL-17A (PathHunter Cytokine Receptor Assay)
Format: cell-based
Procedure, shortened: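 PathHunter cells with IL-17RA and IL-17RC tagged for β-galactosidase complementation were preincubated 60 min with peptide (1% vehicle). IL-17A was then added at EC80 for 6–16 h at 37 °C, and chemiluminescence was read. Inhibition is relative to the EC80 and vehicle controls.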

[1] = IL-17A at EC80, read-out: IC50 in IL-17RA/IL7RC dimerization assay

IL-17RA/IL17RC dimerization induced by IL-17A, sequence (Q16552 24-155): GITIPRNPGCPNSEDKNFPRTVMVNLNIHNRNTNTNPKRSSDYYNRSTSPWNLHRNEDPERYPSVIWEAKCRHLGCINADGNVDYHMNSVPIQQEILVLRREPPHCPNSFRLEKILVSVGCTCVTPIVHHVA

IC50 [1] [µM] | Structure (SMILES) | IC50 [µM]
< 10 | CC[C@H](C)[C@H](NC(C)=O)C(=O)N[C@@H](Cc1c[nH]cn1)C(=O)N[C@H](C(=O)N[C@H](C(=O)N[C@H](C(=O)N1CCC[C@H]1C(=O)N1CCC[C@H]1C(=O)N[C@@H](CC(=O)O)C(=O)N[C@@H](CC(C)C)C(=O)N[C@@H](Cc1c[nH]c2ccccc12)C(=O)N[C@@H](CC(=O)O)C(=O)N[C@@H](Cc1c[nH]c2ccccc12)C(=O)N[C@H](C(=O)N[C@@H](CC(N)=O)C(=O)N[C@@H](CCCCN)C(N)=O)[C@@H](C)CC)[C@@H](C)CC)[C@@H](C)O)C(C)C [SEQ ID NO: 194] (Ac-IHVTIPPDLWDWINK-NH2) | –
< 10 | CC[C@H](C)[C@H](NC(C)=O)C(=O)N[C@@H](Cc1c[nH]cn1)C(=O)N[C@H](C(=O)N[C@H](C(=O)N[C@H](C(=O)N1CCC[C@H]1C(=O)N[C@H](C(=O)N[C@@H](CC(=O)O)C(=O)N[C@@H](CC(C)C)C(=O)N[C@@H](Cc1c[nH]c2ccccc12)C(=O)N[C@@H](CC(=O)O)C(=O)N[C@@H](Cc1c[nH]c2ccccc12)C(=O)N[C@H](C(=O)N[C@@H](CC(N)=O)C(=O)N[C@@H](CCCCN)C(N)=O)[C@@H](C)CC)C(C)C)[C@@H](C)CC)[C@@H](C)O)C(C)C [SEQ ID NO: 195] (Ac-IHVTIPVDLWDWINK-NH2) | –
< 10 | CC[C@H](C)[C@H](NC(C)=O)C(=O)N[C@@H](Cc1c[nH]cn1)C(=O)N[C@H](C(=O)N[C@H](C(=O)N[C@H](C(=O)N1CCC[C@H]1C(=O)N[C@H](C(=O)N[C@@H](CC(=O)O)C(=O)N[C@@H](CC(C)C)C(=O)N[C@@H](Cc1c[nH]c2ccccc12)C(=O)N[C@@H](CC(=O)O)C(=O)N[C@@H](Cc1c[nH]c2ccccc12)C(=O)N[C@H](C(=O)N[C@@H](CC(N)=O)C(=O)N[C@@H](CCCCN)C(N)=O)[C@@H](C)CC)[C@@H](C)CC)[C@@H](C)CC)[C@@H](C)O)C(C)C [SEQ ID NO: 196] (Ac-IHVTIPIDLWDWINK-NH2) | –
< 10 | CC[C@H](C)[C@H](NC(C)=O)C(=O)N[C@@H](Cc1c[nH]cn1)C(=O)N[C@H](C(=O)N[C@H](C(=O)N[C@H](C(=O)N1CCC[C@H]1C(=O)N[C@@H](CC(N)=O)C(=O)N[C@@H](CC(=O)O)C(=O)N[C@@H](CC(C)C)C(=O)N[C@@H](Cc1c[nH]c2ccccc12)C(=O)N[C@@H](CC(=O)O)C(=O)N[C@@H](Cc1c[nH]c2ccccc12)C(=O)N[C@H](C(=O)N[C@@H](CC(N)=O)C(=O)N[C@@H](CCCCN)C(N)=O)[C@@H](C)CC)[C@@H](C)CC)[C@@H](C)O)C(C)C [SEQ ID NO: 197] (Ac-IHVTIPNDLWDWINK-NH2) | –
< 10 | CC[C@H](C)[C@H](NC(C)=O)C(=O)N[C@@H](Cc1c[nH]cn1)C(=O)N[C@H](C(=O)N[C@H](C(=O)N[C@H](C(=O)N1CCC[C@H]1C(=O)N[C@@H](CCC(N)=O)C(=O)N[C@@H](CC(=O)O)C(=O)N[C@@H](CC(C)C)C(=O)N[C@@H](Cc1c[nH]c2ccccc12)C(=O)N[C@@H](CC(=O)O)C(=O)N[C@@H](Cc1c[nH]c2ccccc12)C(=O)N[C@H](C(=O)N[C@@H](CC(N)=O)C(=O)N[C@@H](CCCCN)C(N)=O)[C@@H](C)CC)[C@@H](C)CC)[C@@H](C)O)C(C)C [SEQ ID NO: 198] (Ac-IHVTIPQDLWDWINK-NH2) | –
< 10 | CC[C@H](C)[C@H](NC(C)=O)C(=O)N[C@@H](Cc1c[nH]cn1)C(=O)N[C@H](C(=O)N[C@H](C(=O)N[C@H](C(=O)N1CCC[C@H]1C(=O)N[C@@H](C)C(=O)N[C@@H](CCC(N)=O)C(=O)N[C@@H](CC(C)C)C(=O)N[C@@H](Cc1c[nH]c2ccccc12)C(=O)N[C@@H](CC(=O)O)C(=O)N[C@@H](Cc1c[nH]c2ccccc12)C(=O)N[C@H](C(=O)N[C@@H](CC(N)=O)C(=O)N[C@@H](CCCCN)C(N)=O)[C@@H](C)CC)[C@@H](C)CC)[C@@H](C)O)C(C)C [SEQ ID NO: 199] (Ac-IHVTIPAQLWDWINK-NH2) | –
< 10 | CC[C@H](C)[C@H](NC(C)=O)C(=O)N[C@@H](Cc1c[nH]cn1)C(=O)N[C@H](C(=O)N[C@H](C(=O)N[C@H](C(=O)N1CCC[C@H]1C(=O)N[C@@H](C)C(=O)N[C@@H](Cc1ccc(O)cc1)C(=O)N[C@@H](CC(C)C)C(=O)N[C@@H](Cc1c[nH]c2ccccc12)C(=O)N[C@@H](CC(=O)O)C(=O)N[C@@H](Cc1c[nH]c2ccccc12)C(=O)N[C@H](C(=O)N[C@@H](CC(N)=O)C(=O)N[C@@H](CCCCN)C(N)=O)[C@@H](C)CC)[C@@H](C)CC)[C@@H](C)O)C(C)C [SEQ ID NO: 200] (Ac-IHVTIPAYLWDWINK-NH2) | –
< 10 | CC[C@H](C)[C@H](NC(C)=O)C(=O)N[C@@H](Cc1c[nH]cn1)C(=O)N[C@H](C(=O)N[C@H](C(=O)N[C@H](C(=O)N1CCC[C@H]1C(=O)N[C@@H](C)C(=O)N[C@@H](CC(=O)O)C(=O)N[C@@H](C)C(=O)N[C@@H](Cc1c[nH]c2ccccc12)C(=O)N[C@@H](CC(=O)O)C(=O)N[C@@H](Cc1c[nH]c2ccccc12)C(=O)N[C@H](C(=O)N[C@@H](CC(N)=O)C(=O)N[C@@H](CCCCN)C(N)=O)[C@@H](C)CC)[C@@H](C)CC)[C@@H](C)O)C(C)C [SEQ ID NO: 201] (Ac-IHVTIPADAWDWINK-NH2) | –
< 10 | CC[C@H](C)[C@H](NC(C)=O)C(=O)N[C@@H](Cc1c[nH]cn1)C(=O)N[C@H](C(=O)N[C@H](C(=O)N[C@H](C(=O)N1CCC[C@H]1C(=O)N[C@@H](C)C(=O)N[C@@H](CC(=O)O)C(=O)NCC(=O)N[C@@H](Cc1c[nH]c2ccccc12)C(=O)N[C@@H](CC(=O)O)C(=O)N[C@@H](Cc1c[nH]c2ccccc12)C(=O)N[C@H](C(=O)N[C@@H](CC(N)=O)C(=O)N[C@@H](CCCCN)C(N)=O)[C@@H](C)CC)[C@@H](C)CC)[C@@H](C)O)C(C)C [SEQ ID NO: 202] (Ac-IHVTIPADGWDWINK-NH2) | –
< 10 | CC[C@H](C)[C@H](NC(C)=O)C(=O)N[C@@H](Cc1c[nH]cn1)C(=O)N[C@H](C(=O)N[C@H](C(=O)N[C@H](C(=O)N1CCC[C@H]1C(=O)N[C@@H](C)C(=O)N[C@@H](CC(=O)O)C(=O)N1CCC[C@H]1C(=O)N[C@@H](Cc1c[nH]c2ccccc12)C(=O)N[C@@H](CC(=O)O)C(=O)N[C@@H](Cc1c[nH]c2ccccc12)C(=O)N[C@H](C(=O)N[C@@H](CC(N)=O)C(=O)N[C@@H](CCCCN)C(N)=O)[C@@H](C)CC)[C@@H](C)CC)[C@@H](C)O)C(C)C [SEQ ID NO: 203] (Ac-IHVTIPADPWDWINK-NH2) | –
< 10 | CC[C@H](C)[C@H](NC(C)=O)C(=O)N[C@@H](Cc1c[nH]cn1)C(=O)N[C@H](C(=O)N[C@H](C(=O)N[C@H](C(=O)N1CCC[C@H]1C(=O)N[C@@H](C)C(=O)N[C@@H](CC(=O)O)C(=O)N[C@H](C(=O)N[C@@H](Cc1c[nH]c2ccccc12)C(=O)N[C@@H](CC(=O)O)C(=O)N[C@@H](Cc1c[nH]c2ccccc12)C(=O)N[C@H](C(=O)N[C@@H](CC(N)=O)C(=O)N[C@@H](CCCCN)C(N)=O)[C@@H](C)CC)C(C)C)[C@@H](C)CC)[C@@H](C)O)C(C)C [SEQ ID NO: 204] (Ac-IHVTIPADVWDWINK-NH2) | –
– | CC[C@H](C)[C@H](NC(C)=O)C(=O)N[C@@H](Cc1c[nH]cn1)C(=O)N[C@H](C(=O)N[C@H](C(=O)N[C@H](C(=O)N1CCC[C@H]1C(=O)N[C@@H](C)C(=O)N[C@@H](CC(=O)O)C(=O)N[C@H](C(=O)N[C@@H](Cc1c[nH]c2ccccc12)C(=O)N[C@@H](CC(=O)O)C(=O)N[C@@H](Cc1c[nH]c2ccccc12)C(=O)N[C@H](C(=O)N[C@@H](CC(N)=O)C(=O)N[C@@H](CCCCN)C(N)=O)[C@@H](C)CC)[C@@H](C)CC)[C@@H](C)CC)[C@@H](C)O)C(C)C [SEQ ID NO: 205] (Ac-IHVTIPADIWDWINK-NH2) | < 10
< 10 | CC[C@H](C)[C@H](NC(C)=O)C(=O)N[C@@H](Cc1c[nH]cn1)C(=O)N[C@H](C(=O)N[C@H](C(=O)N[C@H](C(=O)N1CCC[C@H]1C(=O)N[C@@H](C)C(=O)N[C@@H](CC(=O)O)C(=O)N[C@@H](CC(C)C)C(=O)N[C@@H](Cc1c[nH]cn1)C(=O)N[C@@H](CC(=O)O)C(=O)N[C@@H](Cc1c[nH]c2ccccc12)C(=O)N[C@H](C(=O)N[C@@H](CC(N)=O)C(=O)N[C@@H](CCCCN)C(N)=O)[C@@H](C)CC)[C@@H](C)CC)[C@@H](C)O)C(C)C [SEQ ID NO: 206] (Ac-IHVTIPADLHDWINK-NH2) | –
< 10 | CC[C@H](C)[C@H](NC(C)=O)C(=O)N[C@@H](Cc1c[nH]cn1)C(=O)N[C@H](C(=O)N[C@H](C(=O)N[C@H](C(=O)N1CCC[C@H]1C(=O)N[C@@H](C)C(=O)N[C@@H](CC(=O)O)C(=O)N[C@@H](CC(C)C)C(=O)N[C@@H](Cc1ccccc1)C(=O)N[C@@H](CC(=O)O)C(=O)N[C@@H](Cc1c[nH]c2ccccc12)C(=O)N[C@H](C(=O)N[C@@H](CC(N)=O)C(=O)N[C@@H](CCCCN)C(N)=O)[C@@H](C)CC)[C@@H](C)CC)[C@@H](C)O)C(C)C [SEQ ID NO: 207] (Ac-IHVTIPADLFDWINK-NH2) | –
< 10 | CC[C@H](C)[C@H](NC(C)=O)C(=O)N[C@@H](Cc1c[nH]cn1)C(=O)N[C@H](C(=O)N[C@H](C(=O)N[C@H](C(=O)N1CCC[C@H]1C(=O)N[C@@H](C)C(=O)N[C@@H](CC(=O)O)C(=O)N[C@@H](CC(C)C)C(=O)N[C@@H](Cc1c[nH]c2ccccc12)C(=O)N[C@@H](CC(N)=O)C(=O)N[C@@H](Cc1c[nH]c2ccccc12)C(=O)N[C@H](C(=O)N[C@@H](CC(N)=O)C(=O)N[C@@H](CCCCN)C(N)=O)[C@@H](C)CC)[C@@H](C)CC)[C@@H](C)O)C(C)C [SEQ ID NO: 208] (Ac-IHVTIPADLWNWINK-NH2) | –
< 10 | CC[C@H](C)[C@H](NC(C)=O)C(=O)N[C@@H](Cc1c[nH]cn1)C(=O)N[C@H](C(=O)N[C@H](C(=O)N[C@H](C(=O)N1CCC[C@H]1C(=O)N[C@@H](C)C(=O)N[C@@H](CC(=O)O)C(=O)N[C@@H](CC(C)C)C(=O)N[C@@H](Cc1c[nH]c2ccccc12)C(=O)N[C@@H](CC(=O)O)C(=O)N[C@@H](Cc1c[nH]cn1)C(=O)N[C@H](C(=O)N[C@@H](CC(N)=O)C(=O)N[C@@H](CCCCN)C(N)=O)[C@@H](C)CC)[C@@H](C)CC)[C@@H](C)O)C(C)C [SEQ ID NO: 209] (Ac-IHVTIPADLWDHINK-NH2) | –
